In patent US9340577B2, “HLA binding motifs and peptides and their uses” (priority 1992, dated 2016):
Like-named read-outs stand apart in the source and are kept apart here. No end group written: not given here.

What was measured:
A*6802 = A*6802 (Homo sapiens, UniProt P04439, A269V/D140Y/D185E/E176V/E277Q/E87N/F33Y/G231S/I121R/I166T/I218V/L180W/L300P/L318F/N151K/P208A/P217A/Q86R/R138H/R169H/S129P/T345S/V36M); assay: biochemical; type: binding
DRB1*0802 = DRB1*0802 (Homo sapiens, UniProt P01903+P01911, A100R/A103L/A169T/F76Y/H45Y/I96F/K41T/L162R/M171V/P40S/Q125H/Q178H/Q39Y/Q99D/R218S/R42G/S66Y/V115G/W38E); assay: biochemical; type: binding
DRB1*1101 = DRB1*1101 (Homo sapiens, UniProt P01903+P01911, A100R/A169T/A87E/I96F/K41T/L162R/M171V/P40S/Q125H/Q178H/Q39Y/Q99D/R42S/S66Y/T262R/V115G/W38E); assay: biochemical
DR4w4 (DRB1*0401) = DR4w4 (DRB1*0401) (Homo sapiens, UniProt P01903+P01911, A100K/A169T/F76Y/I96L/K127E/L162R/M171V/N62H/P40V/Q125Y/R42H/S133A/S149N/S66Y/V115G/V209L/W38E); assay: biochemical; type: binding
A2.1 HLA molecules = A2.1 HLA molecules (Homo sapiens, UniProt P04439, D140Y/D185E/D98H/E176V/E277Q/G131W/G231S/I119V/I121R/I166T/I218V/L300P/L318F/N151K/N90K/P208A/P217A/Q86G/Q94H/R138H/R169H/T345S); type: binding; set-up: A*0201 / A2.1 Binding / A2 Bind. / A2 / A2.1 (binding capacity): scale not given here
HLA-A*0201 (HLA-A2.1) = HLA-A*0201 (HLA-A2.1) (Homo sapiens, UniProt P04439, D140Y/D185E/D98H/E176V/E277Q/G131W/G231S/I119V/I121R/I166T/I218V/L300P/L318F/N151K/N90K/P208A/P217A/Q86G/Q94H/R138H/R169H/T345S); assay: biochemical; type: binding
HLA-A3.2 (A*0301) = HLA-A3.2 (A*0301) (Homo sapiens, UniProt P04439); assay: biochemical; type: binding; conditions: Table 164, MAGE peptides; binding value to HLA-A3.2, no unit given
HLA-A11 (A*1101) = HLA-A11 (A*1101) (Homo sapiens, UniProt P04439, A114D/D185E/E176A/F33Y/L180Q/S129P/T187R); assay: biochemical; type: binding; set-up: A11: unit not given here
DRB1*0901 = DRB1*0901 (Homo sapiens, UniProt P01903+P01911, A100R/A103E/D57H/D86V/F55Y/F60I/F76Y/I96F/K127E/L162R/M171V/P40D/Q125H/Q99R/R33Q/R42F/S133A/S66N/T210M/V115G/W38K/Y107V/Y59G/Y89S); assay: biochemical; type: binding
DRB5*0101 = DRB5*0101 (Homo sapiens, UniProt P01903+Q30154); assay: biochemical
DRB1*1302 = DRB1*1302 (Homo sapiens, UniProt P01903+P01911, A100E/A169T/K41T/L162R/M171V/P40S/Q125H/Q178H/Q39Y/Q99D/R42S/S66N/T262R/V115G/W38E/Y61H); assay: biochemical; type: binding
DRB1*1501 = DRB1*1501 (Homo sapiens, UniProt P01903+P01911); assay: biochemical; type: binding
DR7 (DRB1*0701) = DR7 (DRB1*0701) (Homo sapiens, UniProt P01903+P01911, A100R/A102G/A103Q/D57E/D86V/E43K/F76Y/K127E/L162R/M171V/P40G/Q125H/Q99D/R33Q/R42Y/R54Q/S133A/S66F/T210M/V115G/Y107V/Y59L/Y89S); assay: biochemical; type: binding
DR1 (DRB1*0101) = DR1 (DRB1*0101) (Homo sapiens, UniProt P01903+P01911, A100R/D57E/F55L/F60I/F76Y/I96L/L162R/M171V/P40L/Q125E/R42F/V115G/Y59C); assay: biochemical; type: binding

Chain of DRB1*1101 (P01903 26-254 limits assumed, other chains not shown): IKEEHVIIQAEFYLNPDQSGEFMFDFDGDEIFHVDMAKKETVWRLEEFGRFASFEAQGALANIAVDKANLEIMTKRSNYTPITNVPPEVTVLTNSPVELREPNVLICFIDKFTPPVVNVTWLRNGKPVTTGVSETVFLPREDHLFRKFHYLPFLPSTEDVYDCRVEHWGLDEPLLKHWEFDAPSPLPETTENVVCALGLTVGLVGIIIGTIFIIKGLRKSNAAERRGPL
Chain of DRB1*1302 (P01903 26-254 limits assumed, other chains not shown): as above

VTAKELKFV [Peptide 1418.24]
IC50 (A*6802): > 20 µM

Ac-NPDAENWNSQFEILEDAA [Peptide 725.01]
IC50 (DRB1*0802): > 25 µM

GVILYSDPADYFAPG [Peptide 68.0170]
IC50 (DRB1*1101; Binding affinity DRB1 *1101): > 20 µM
IC50 (DRB1*0802): > 20 µM

787.39 (AAIGGIFIFKKDA; also: non-natural residue (43)) [Peptide 787.39]
IC50 (DR4w4 (DRB1*0401); read-out: DRB1*0401): 0.8 µM

IMPKAGLLIIV
A2 Bind. (A2.1 HLA molecules): 0.0130
binding to HLA-A2.1 (column 3; no allele head shown for these rows) (HLA-A*0201 (HLA-A2.1)): 0.013

KVADLVGFLLL
A2 Bind. (A2.1 HLA molecules): 0.0200
binding to HLA-A2.1 (column 3; no allele head shown for these rows) (HLA-A*0201 (HLA-A2.1)): 0.020

SLHCKPEEA
A3.2 (HLA-A3.2 (A*0301)): <0.0002
A11 (HLA-A11 (A*1101)): 0
A2 Bind. (A2.1 HLA molecules): 0.0130
A2.1 relative binding (ratio of binding of test peptide relative to standard peptide) (A2.1 HLA molecules): 0.013
A2.1 (HLA-A*0201 (HLA-A2.1)): 0.013

WMELSVMEV
A2 Bind. (A2.1 HLA molecules): 0.0410
binding to HLA-A2.1 (column 3; no allele head shown for these rows) (HLA-A*0201 (HLA-A2.1)): 0.041

QMMPKTGFLV
A2 Bind. (A2.1 HLA molecules): 0.0500
binding to HLA-A2.1 (column 3; no allele head shown for these rows) (HLA-A*0201 (HLA-A2.1)): 0.050

CYSLYGTTLEQQYNK [Peptide 85.0004]
IC50 (DRB1*0901): 26 µM

LQLPPLERLTV [Peptide 73.0158]
IC50 (A*6802): > 20 µM

LLGDNQIMV
A2 Bind. (A2.1 HLA molecules): 0.0430
binding to HLA-A2.1 (column 3; no allele head shown for these rows) (HLA-A*0201 (HLA-A2.1)): 0.043

YEFLWGPRA
A2.1 relative binding (ratio of binding of test peptide relative to standard peptide) (A2.1 HLA molecules): 0
binding to HLA-A2.1 (column 3; no allele head shown for these rows) (HLA-A*0201 (HLA-A2.1)): 0

CC[C@H](C)[C@H](NC(=O)[C@H](CCC(N)=O)NC(=O)[C@@H](NC(=O)[C@H](CO)NC(=O)[C@H](CC(=O)O)NC(=O)[C@@H]1CCCN1C(=O)[C@@H](NC(=O)[C@H](C)NC(=O)[C@@H](NC(=O)[C@@H](NC(=O)[C@H](CC(N)=O)NC(=O)[C@H](CC(C)C)NC(=O)[C@@H](N)Cc1ccccc1)[C@@H](C)O)C(C)C)[C@@H](C)CC)C(C)C)C(=O)N[C@@H](CC(C)C)C(=O)N[C@H](C(=O)O)C(C)C [Peptide 1601.20]
IC50 (DRB5*0101; Binding affinity DRB5 *0101): > 20 µM
IC50 (DRB1*1101; Binding affinity DRB1 *1101): > 20 µM
IC50 (DRB1*0802): > 20 µM
IC50 (DRB1*1302): 0.09 µM

787.35 (AAIGFFFFKKGIA; also: non-natural residue (43)) [Peptide 787.35]
IC50 (DR4w4 (DRB1*0401); read-out: DRB1*0401): 0.258 µM

KMADLVGFLV
A2 Bind. (A2.1 HLA molecules): 1.5000
binding to HLA-A2.1 (column 3; no allele head shown for these rows) (HLA-A*0201 (HLA-A2.1)): 1.5

Ac-AAAKAAAAAAYAA [Peptide 702.08]
IC50 (DR4w4 (DRB1*0401)): 0.348 µM

QYIKANSSFIGITE
IC50 (DR4w4 (DRB1*0401)): 0.013 µM

ALGLVCVQA
A3.2 (HLA-A3.2 (A*0301)): <0.0002
A11 (HLA-A11 (A*1101)): <0.0002
A2 Bind. (A2.1 HLA molecules): 0.0150
A2.1 relative binding (ratio of binding of test peptide relative to standard peptide) (A2.1 HLA molecules): 0.015
A2.1 (HLA-A*0201 (HLA-A2.1)): 0.015

GKSYFGMSLIHFLKG [Peptide 89.0146]
IC50 (DRB1*1501): > 20 µM
IC50 (DR7 (DRB1*0701)): > 20 µM
IC50 (DR4w4 (DRB1*0401)): 0.561 µM
IC50 (DRB1*0901): > 20 µM
IC50 (DRB5*0101; Binding affinity DRB5 *0101): > 20 µM
IC50 (DRB1*1101; Binding affinity DRB1 *1101): > 20 µM
IC50 (DR1 (DRB1*0101)): > 20 µM
IC50 (DRB1*0802): > 20 µM
IC50 (DRB1*1302): > 20 µM

Ac-NPTKHKWEAAHVAEQLAA [Peptide 724.01]
IC50 (DRB1*0802): 25 µM

RTLHDLCQA [Peptide 1481.46]
IC50 (A*6802): > 20 µM

IIHLKGDKNSLKCLR [90,0218]
IC50 (DR7 (DRB1*0701)): > 20 µM
IC50 (DRB1*0901): > 20 µM
IC50 (DRB1*1101; […]): > 20 µM
IC50 (DRB1*0802): 5.03 µM

730.15 (AAKAAAAAAAAA; also: non-natural residue (10)) [Peptide 730.15]
IC50 (DR4w4 (DRB1*0401); read-out: DRB1*0401): > 0.889 µM

GTLEEVPTA
A2 Bind. (A2.1 HLA molecules): 0.0130
binding to HLA-A2.1 (column 3; no allele head shown for these rows) (HLA-A*0201 (HLA-A2.1)): 0.013

YLQLVFGIEV
A2 Bind. (A2.1 HLA molecules): 0.3700
binding to HLA-A2.1 (column 3; no allele head shown for these rows) (HLA-A*0201 (HLA-A2.1)): 0.37

HLYIFATCLGL
A2 Bind. (A2.1 HLA molecules): 0.0410
binding to HLA-A2.1 (column 3; no allele head shown for these rows) (HLA-A*0201 (HLA-A2.1)): 0.041

QLVFGIELMEV
A2 Bind. (A2.1 HLA molecules): 0.3400
binding to HLA-A2.1 (column 3; no allele head shown for these rows) (HLA-A*0201 (HLA-A2.1)): 0.34

YMFLWGPRV
A2 Bind. (A2.1 HLA molecules): 0.2200
binding to HLA-A2.1 (column 3; no allele head shown for these rows) (HLA-A*0201 (HLA-A2.1)): 0.22

CC[C@H](C)[C@H](NC(=O)[C@H](CC(N)=O)NC(=O)[C@H](C)NC(=O)[C@H](CC(=O)O)NC(=O)CNC(=O)[C@H](CCCCN)NC(=O)[C@H](CC(C)C)NC(=O)[C@H](Cc1c[nH]cn1)NC(=O)[C@@H](NC(=O)[C@@H](NC(=O)[C@@H]1CCCN1C(=O)[C@@H](NC(=O)[C@@H](N)[C@@H](C)O)[C@@H](C)O)[C@@H](C)CC)[C@@H](C)CC)C(=O)N[C@@H](CC(C)C)C(=O)N[C@@H](CCCCN)C(=O)O [Peptide 1601.25]
IC50 (DRB5*0101; Binding affinity DRB5 *0101): > 20 µM

839.03 (AAAATKAAAA; also: non-natural residues (14), (35)) [Peptide 839.03]
IC50 (DR4w4 (DRB1*0401); read-out: DRB1*0401): > 0.5 µM

AKSTWYGKPTGAGPKDNGGA [Peptide 620.03]
IC50 (DRB5*0101; DRB5*0101): 10 µM

CC[C@H](C)[C@H](NC(=O)CNC(=O)[C@H](CCCNC(=N)N)NC(=O)[C@H](CCCNC(=N)N)NC(=O)[C@H](Cc1ccc(O)cc1)NC(=O)[C@H](C)NC(=O)[C@H](Cc1ccc(O)cc1)NC(=O)[C@@H](N)CCC(=O)O)C(=O)N[C@@H](C)C(=O)N[C@@H](CCC(=O)O)C(=O)N[C@@H](C)C(=O)N[C@H](C(=O)NCC(=O)N[C@@H](CC(C)C)C(=O)N1CCC[C@H]1C(=O)O)C(C)C [Peptide 68.0100]
IC50 (DRB1*1501): > 20 µM

LLLPPLERLTL [Peptide 73.0157]
IC50 (A*6802): > 20 µM

702.17 (AYAAAKA; also: non-natural residues (20)) [Peptide 702.17]
IC50 (DR7 (DRB1*0701); read-out: DRB1*0701): 8.33 µM
IC50 (DR4w4 (DRB1*0401); read-out: DRB1*0401): 0.25 µM

VMIAMEGGHV
A2 Bind. (A2.1 HLA molecules): 0.0530
binding to HLA-A2.1 (column 3; no allele head shown for these rows) (HLA-A*0201 (HLA-A2.1)): 0.053

FVNQHLCGSHLVEAL [Peptide 9000.0047]
IC50 (DR7 (DRB1*0701)): 6.79 µM

Ac-AAAKAAAAAAFAA [Peptide 730.09]
IC50 (DR4w4 (DRB1*0401)): 0.421 µM

TLHDLCQAL [Peptide 1481.47]
IC50 (A*6802): > 20 µM

SEVYDFAFADLTVVY [Peptide 85.0024]
IC50 (DRB1*1101; Binding affinity DRB1 *1101): > 20 µM
IC50 (DRB1*1302): > 20 µM

TAEYGDKWLDAKSTWYGKPT [Peptide 620.02]
IC50 (DRB5*0101; DRB5*0101): 10 µM

LHLLSNDMCARAYSE [Peptide 68.0140]
IC50 (DRB1*1501): > 20 µM
IC50 (DR7 (DRB1*0701)): > 20 µM
IC50 (DRB1*0901): > 20 µM
IC50 (DRB5*0101; Binding affinity DRB5 *0101): > 20 µM
IC50 (DRB1*1101; Binding affinity DRB1 *1101): > 20 µM
IC50 (DRB1*0802): > 20 µM
